One assay deals with MAP17 gene. Description: MAP17 gene expression in human keratinocytes treated with ginsenoside-Re (Q-RT-PCR). The assay is classed as cell-based. The note with it: ginsenoside-Re 10 uM, 24 hours, vs untreated control, FIG. 5 (A). On the procedure: (§1) Various human keratinocytes were treated with a variety of materials, and change in expression of MAP17 and filaggrin genes were monitored. It was investigated whether ginsenoside-Re, a kind of ginsenoid derived from the fruit of ginseng, regulates the expression of MAP17 and filaggrin genes. Human keratinocytes were purchased from Lonza, Inc. and cultured in KBM-2 medium (Clonetics CC-3103) in a CO2 incubator under a condition of 37° C. and 5% CO2.
(§2) The cultured human keratinocytes without any treatment were used as a control group. For a test group, the human keratinocytes were further cultured for 24 hours after adding ginsenoside-Re (10 uM). Ginsenoside-Re was purchased from Wako (Kanagawa, Japan) and prepared into a solution according to the manufacturer's instructions. […]
(§3) The isolated RNA was purified once more using Qiagen RNeasy kit (Qiagen, Valencia, Calif.) and RNA quality and concentration were verified using Agilent 2100 BioAnalyzer (Agilent Technologies, Santa Clara, Calif., USA). cDNA was synthesized from the isolated RNA using Superscript RT II kit (Invitrogen, Carlsbad, Calif.), and change in gene expression was quantitatively analyzed by means of Q-RT-PCR. Change in the expression pattern of MAP17 (Hs00173779_m1) and filaggrin (Hs00856927_g1) was evaluated using TaqMan® gene expression assay kit (Applied Biosystems, Foster City, Calif.) and is shown in FIG. 5.

The subject of the next assay is filaggrin gene. Description: filaggrin gene expression in human keratinocytes treated with ginsenoside-Re (Q-RT-PCR). The note with it: ginsenoside-Re 10 uM, 24 hours, vs untreated control, FIG. 5 (B). The assay is classed as cell-based. As to the method:
as §1, §2, §3

In the case of `CC(C)=CCC[C@](C)(O[C@@H]1O[C@H](CO)[C@@H](O)[C@H](O)[C@H]1O)[C@H]1CC[C@]2(C)[C@@H]1[C@H](O)C[C@@H]1[C@@]3(C)CC[C@H](O)C(C)(C)[C@@H]3[C@@H](O[C@@H]3O[C@H](CO)[C@@H](O)[C@H](O)[C@H]3O[C@@H]3O[C@@H](C)[C@H](O)[C@@H](O)[C@H]3O)C[C@]12C` [ginsenoside-Re], the “expression of the MAP17 gene in human keratinocytes” value in the assay with MAP17 gene is recorded as “markedly decreases”. In the assay on filaggrin gene, the “expression of the filaggrin gene in human keratinocytes” value is “increases”.

For the origin of these results see US20110212455A1, “METHOD OF SCREENING MATERIAL FOR IMPROVING SKIN FUNCTIONS” (AMOREPACIFIC CORPORATION, priority 2008, published 2011).
